Measured values reported in ChEMBL document CHEMBL5465560, “Selectivity Literature for EUbOPEN Chemogenomic Library” (2024).

Experiments:
[1] = target: T1, Serine/threonine-protein kinase STK11 (Homo sapiens) (UniProt Q15831); test: Selectivity interaction (Kinase panel (KiNativ target engagement assay in Jurkat cells)) EUB0001635a STK11; format: cell-based; details: Selectivity number of off-targets 0.0, Selectivity number of targets 233.0, Source Knowledge https://www.sciencedirect.com/science/article/pii/S2451945619300674?via%3Dihub, at 1 µM
T1 sequence (whole entry): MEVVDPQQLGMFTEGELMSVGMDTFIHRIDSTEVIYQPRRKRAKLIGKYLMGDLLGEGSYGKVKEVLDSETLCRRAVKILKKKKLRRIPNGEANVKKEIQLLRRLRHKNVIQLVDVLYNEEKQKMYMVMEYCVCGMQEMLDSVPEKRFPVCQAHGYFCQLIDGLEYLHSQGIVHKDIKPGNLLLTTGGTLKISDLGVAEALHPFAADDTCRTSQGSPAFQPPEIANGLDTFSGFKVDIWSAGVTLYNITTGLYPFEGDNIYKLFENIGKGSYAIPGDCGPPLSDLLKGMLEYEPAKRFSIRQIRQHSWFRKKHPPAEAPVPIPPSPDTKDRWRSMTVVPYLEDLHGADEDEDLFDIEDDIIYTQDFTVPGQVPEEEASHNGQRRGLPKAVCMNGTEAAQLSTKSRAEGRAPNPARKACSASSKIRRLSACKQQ

[2] = target: T2, Interleukin-1 receptor-associated kinase 4 (Homo sapiens) (UniProt Q9NWZ3); test: Selectivity interaction (KinomeScan (DiscoverX)) EUB0000229b IRAK4; details: at 10 µM
T2 sequence (whole entry): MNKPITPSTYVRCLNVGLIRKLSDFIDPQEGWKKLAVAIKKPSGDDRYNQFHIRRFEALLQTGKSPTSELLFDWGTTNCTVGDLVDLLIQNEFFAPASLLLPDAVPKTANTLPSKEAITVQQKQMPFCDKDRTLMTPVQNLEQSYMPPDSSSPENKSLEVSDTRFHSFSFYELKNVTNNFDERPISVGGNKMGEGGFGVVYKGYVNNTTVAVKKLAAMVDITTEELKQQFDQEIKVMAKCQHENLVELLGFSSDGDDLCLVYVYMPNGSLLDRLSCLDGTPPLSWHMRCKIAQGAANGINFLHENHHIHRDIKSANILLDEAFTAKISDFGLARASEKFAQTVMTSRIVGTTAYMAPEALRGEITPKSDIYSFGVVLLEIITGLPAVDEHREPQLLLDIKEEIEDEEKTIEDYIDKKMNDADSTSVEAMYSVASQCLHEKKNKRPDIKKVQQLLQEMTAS

[3] = target: Histone-lysine N-methyltransferase, H3 lysine-79 specific (Homo sapiens, UniProt Q8TEK3); details: at 1 µM
[4] = test system: Epidermal growth factor receptor (Homo sapiens), P00533 [UNDEFINED MUTATION]; test: Selectivity interaction (KinomeScan (DiscoverX)) EUB0000045b EGFR; details: at 10 µM
Sequence of Epidermal growth factor receptor (Homo sapiens), P00533 [UNDEFINED MUTATION] (P00533 whole entry, looked up, change not shown): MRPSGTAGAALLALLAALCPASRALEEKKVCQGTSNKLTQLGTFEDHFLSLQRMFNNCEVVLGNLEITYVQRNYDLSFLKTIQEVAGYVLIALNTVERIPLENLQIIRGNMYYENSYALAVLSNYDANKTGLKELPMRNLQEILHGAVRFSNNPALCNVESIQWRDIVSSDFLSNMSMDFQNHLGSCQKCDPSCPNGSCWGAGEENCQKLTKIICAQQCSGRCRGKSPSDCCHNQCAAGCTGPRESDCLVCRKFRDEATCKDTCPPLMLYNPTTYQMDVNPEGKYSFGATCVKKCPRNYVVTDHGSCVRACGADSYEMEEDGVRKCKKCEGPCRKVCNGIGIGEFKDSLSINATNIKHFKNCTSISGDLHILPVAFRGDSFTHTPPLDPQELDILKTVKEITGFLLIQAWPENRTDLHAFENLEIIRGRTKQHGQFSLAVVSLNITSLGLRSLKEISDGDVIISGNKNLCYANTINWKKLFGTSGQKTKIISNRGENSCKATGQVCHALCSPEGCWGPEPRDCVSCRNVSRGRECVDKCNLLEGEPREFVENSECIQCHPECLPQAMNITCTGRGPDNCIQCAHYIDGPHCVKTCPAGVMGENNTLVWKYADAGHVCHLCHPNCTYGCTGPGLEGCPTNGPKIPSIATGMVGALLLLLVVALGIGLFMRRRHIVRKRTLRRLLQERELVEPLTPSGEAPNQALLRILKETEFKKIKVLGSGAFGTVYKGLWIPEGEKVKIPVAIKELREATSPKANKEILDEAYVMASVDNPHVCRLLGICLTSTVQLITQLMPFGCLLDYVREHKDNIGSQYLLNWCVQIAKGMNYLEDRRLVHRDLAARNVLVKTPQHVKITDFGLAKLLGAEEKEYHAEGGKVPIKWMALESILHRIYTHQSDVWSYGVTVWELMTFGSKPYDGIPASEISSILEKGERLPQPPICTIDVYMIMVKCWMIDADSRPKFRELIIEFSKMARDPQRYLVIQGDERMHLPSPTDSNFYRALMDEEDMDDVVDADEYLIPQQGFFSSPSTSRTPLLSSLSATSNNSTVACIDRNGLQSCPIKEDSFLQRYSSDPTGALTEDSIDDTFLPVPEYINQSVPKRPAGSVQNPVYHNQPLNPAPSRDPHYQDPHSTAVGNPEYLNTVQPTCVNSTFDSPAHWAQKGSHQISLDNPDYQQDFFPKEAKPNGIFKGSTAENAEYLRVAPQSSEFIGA

[5] = target: T3, Mitogen-activated protein kinase kinase kinase kinase 3 (Homo sapiens) (UniProt Q8IVH8); test: Selectivity interaction (KinomeScan (DiscoverX)) EUB0000666a MAP4K3; details: at 10 µM
T3 sequence (whole entry): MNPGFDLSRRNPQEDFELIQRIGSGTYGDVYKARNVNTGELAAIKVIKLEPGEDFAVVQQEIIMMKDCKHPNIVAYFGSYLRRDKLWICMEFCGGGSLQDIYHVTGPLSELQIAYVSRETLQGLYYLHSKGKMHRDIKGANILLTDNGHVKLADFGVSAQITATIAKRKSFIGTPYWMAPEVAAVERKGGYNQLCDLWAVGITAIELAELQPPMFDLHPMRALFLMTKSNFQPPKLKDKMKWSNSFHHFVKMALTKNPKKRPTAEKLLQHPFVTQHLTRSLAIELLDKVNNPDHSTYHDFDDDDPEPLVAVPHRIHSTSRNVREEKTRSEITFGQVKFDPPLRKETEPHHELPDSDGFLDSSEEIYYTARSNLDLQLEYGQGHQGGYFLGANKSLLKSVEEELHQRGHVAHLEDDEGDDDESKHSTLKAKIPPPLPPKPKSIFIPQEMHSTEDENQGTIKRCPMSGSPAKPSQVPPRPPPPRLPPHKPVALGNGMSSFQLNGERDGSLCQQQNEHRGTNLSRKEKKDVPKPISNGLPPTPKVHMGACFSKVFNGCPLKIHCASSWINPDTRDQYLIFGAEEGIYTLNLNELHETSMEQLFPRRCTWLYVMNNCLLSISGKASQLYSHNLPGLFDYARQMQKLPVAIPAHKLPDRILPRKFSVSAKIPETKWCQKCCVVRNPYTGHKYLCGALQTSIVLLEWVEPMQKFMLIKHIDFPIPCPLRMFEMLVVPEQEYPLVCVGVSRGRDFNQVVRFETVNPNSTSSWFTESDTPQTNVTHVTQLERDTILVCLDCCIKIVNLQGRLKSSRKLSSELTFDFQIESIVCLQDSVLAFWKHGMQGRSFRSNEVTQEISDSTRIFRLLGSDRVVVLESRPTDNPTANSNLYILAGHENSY

[6] = target: Calcium/calmodulin-dependent protein kinase kinase 2 (Homo sapiens) (UniProt Q96RR4); test: Selectivity interaction (KinomeScan (DiscoverX)) EUB0001049a CAMKK2; details: at 1 µM
Sequence of Calcium/calmodulin-dependent protein kinase kinase 2 (Homo sapiens) (Q96RR4 2-588 limits assumed): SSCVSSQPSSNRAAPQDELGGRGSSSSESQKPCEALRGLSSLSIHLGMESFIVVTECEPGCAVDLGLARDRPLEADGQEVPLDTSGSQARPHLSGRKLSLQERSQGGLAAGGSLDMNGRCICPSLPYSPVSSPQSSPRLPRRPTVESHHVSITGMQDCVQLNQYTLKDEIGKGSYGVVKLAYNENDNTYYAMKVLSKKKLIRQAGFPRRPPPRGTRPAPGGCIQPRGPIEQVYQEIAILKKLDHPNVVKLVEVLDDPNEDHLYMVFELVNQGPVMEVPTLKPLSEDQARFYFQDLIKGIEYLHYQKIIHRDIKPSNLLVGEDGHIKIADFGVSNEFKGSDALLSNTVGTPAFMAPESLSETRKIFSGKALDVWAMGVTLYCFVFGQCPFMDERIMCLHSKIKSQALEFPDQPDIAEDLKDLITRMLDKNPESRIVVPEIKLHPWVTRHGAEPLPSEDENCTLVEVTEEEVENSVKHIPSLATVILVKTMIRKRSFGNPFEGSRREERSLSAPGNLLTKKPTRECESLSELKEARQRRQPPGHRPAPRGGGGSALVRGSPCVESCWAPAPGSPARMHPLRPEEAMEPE

[7] = target: Fibroblast growth factor receptor 4 (Homo sapiens, UniProt P22455); test: Selectivity interaction (Upstate Kinase Profiler service (Millipore)) EUB0000056c FGFR4; details: at 1 µM
Sequence of Fibroblast growth factor receptor 4 (P22455 22-802 limits assumed): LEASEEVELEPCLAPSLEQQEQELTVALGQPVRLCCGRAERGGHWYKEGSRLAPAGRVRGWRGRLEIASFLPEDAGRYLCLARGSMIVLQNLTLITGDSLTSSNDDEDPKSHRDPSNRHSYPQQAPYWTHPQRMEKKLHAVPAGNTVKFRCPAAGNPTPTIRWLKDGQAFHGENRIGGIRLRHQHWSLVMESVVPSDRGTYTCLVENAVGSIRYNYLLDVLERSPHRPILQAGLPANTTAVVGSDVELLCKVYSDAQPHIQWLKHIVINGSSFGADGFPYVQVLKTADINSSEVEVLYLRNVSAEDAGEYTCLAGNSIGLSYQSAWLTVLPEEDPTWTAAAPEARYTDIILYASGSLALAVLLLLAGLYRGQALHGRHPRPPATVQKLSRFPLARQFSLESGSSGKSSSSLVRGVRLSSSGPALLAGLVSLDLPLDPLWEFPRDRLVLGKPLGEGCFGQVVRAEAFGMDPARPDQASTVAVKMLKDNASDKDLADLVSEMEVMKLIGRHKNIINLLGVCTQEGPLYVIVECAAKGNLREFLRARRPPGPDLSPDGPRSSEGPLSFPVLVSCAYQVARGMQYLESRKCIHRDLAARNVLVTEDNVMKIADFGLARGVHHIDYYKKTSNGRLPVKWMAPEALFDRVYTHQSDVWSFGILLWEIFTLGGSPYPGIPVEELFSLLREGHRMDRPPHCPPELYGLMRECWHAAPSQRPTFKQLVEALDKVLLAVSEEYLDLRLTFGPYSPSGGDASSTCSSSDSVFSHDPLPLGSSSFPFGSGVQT

[8] = target: Serine/threonine-protein kinase PAK 2 (Homo sapiens) (UniProt Q13177); test: Selectivity interaction (ProQinase) EUB0000171b PAK2
Sequence of Serine/threonine-protein kinase PAK 2 (Homo sapiens) (Q13177 whole entry): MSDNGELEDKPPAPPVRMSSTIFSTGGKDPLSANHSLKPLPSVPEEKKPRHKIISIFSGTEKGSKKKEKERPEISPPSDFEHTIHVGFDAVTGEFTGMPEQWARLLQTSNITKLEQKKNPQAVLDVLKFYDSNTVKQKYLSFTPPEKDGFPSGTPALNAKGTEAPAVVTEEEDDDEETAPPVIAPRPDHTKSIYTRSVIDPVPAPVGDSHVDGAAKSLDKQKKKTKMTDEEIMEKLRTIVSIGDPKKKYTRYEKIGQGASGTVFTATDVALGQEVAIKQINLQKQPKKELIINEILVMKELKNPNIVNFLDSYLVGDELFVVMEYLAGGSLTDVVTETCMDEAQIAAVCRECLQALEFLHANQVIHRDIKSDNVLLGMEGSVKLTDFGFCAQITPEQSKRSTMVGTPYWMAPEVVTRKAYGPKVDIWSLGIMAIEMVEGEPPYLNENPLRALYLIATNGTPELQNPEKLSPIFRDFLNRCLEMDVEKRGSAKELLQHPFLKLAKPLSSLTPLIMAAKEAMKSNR

[9] = target: Tyrosine-protein kinase Fer (Homo sapiens) (UniProt P16591); test: Selectivity interaction (ActivX KiNativ screen (kinase selectivity in THP-1 cell lysates)) EUB0000639a FER; format: subcellular; details: lysate, at 1 µM
[10] = target: Non-receptor tyrosine-protein kinase TYK2 (Homo sapiens, UniProt P29597); test: Selectivity interaction (ActivX KiNativ screen (kinase selectivity in THP-1 cell lysates)) EUB0000639a TYK2; format: subcellular; details: lysate, at 0.01 µM
Sequence of Non-receptor tyrosine-protein kinase TYK2 (P29597 whole entry): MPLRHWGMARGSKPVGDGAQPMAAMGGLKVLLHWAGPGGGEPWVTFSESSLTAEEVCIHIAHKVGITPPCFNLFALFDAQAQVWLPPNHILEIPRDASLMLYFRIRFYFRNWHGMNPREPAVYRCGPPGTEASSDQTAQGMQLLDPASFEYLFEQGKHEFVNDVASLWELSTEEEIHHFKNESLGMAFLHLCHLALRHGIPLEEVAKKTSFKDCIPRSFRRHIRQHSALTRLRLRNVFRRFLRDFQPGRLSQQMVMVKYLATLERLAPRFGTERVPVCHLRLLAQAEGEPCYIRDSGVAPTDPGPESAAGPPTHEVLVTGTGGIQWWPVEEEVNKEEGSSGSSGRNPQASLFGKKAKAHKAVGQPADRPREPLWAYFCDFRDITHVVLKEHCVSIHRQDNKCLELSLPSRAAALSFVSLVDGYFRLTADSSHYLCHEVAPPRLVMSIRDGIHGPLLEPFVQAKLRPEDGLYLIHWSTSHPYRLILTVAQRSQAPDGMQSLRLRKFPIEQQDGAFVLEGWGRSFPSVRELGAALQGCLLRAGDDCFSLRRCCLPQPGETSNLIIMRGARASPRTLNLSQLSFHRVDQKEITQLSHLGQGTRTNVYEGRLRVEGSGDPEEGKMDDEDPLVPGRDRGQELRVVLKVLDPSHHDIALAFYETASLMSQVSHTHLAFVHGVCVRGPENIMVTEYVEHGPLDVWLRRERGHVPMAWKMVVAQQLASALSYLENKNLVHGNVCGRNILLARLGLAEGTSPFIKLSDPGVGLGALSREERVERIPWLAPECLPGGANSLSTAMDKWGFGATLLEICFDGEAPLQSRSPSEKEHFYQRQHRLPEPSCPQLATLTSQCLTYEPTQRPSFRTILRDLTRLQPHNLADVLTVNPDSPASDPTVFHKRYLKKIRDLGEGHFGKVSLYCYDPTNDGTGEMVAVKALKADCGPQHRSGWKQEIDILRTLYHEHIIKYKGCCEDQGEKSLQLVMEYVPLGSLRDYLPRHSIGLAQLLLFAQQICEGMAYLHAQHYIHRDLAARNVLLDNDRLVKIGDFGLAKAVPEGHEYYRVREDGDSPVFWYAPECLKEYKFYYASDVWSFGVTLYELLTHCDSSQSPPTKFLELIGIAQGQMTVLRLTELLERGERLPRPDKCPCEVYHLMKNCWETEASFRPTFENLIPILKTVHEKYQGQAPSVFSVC

[11] = target: Serine/threonine-protein kinase MARK2 (Homo sapiens) (UniProt Q7KZI7); test: Selectivity interaction (KinomeScan (DiscoverX)) EUB0000655a MARK2; details: at 10 µM
Sequence of Serine/threonine-protein kinase MARK2 (Homo sapiens) (Q7KZI7 whole entry): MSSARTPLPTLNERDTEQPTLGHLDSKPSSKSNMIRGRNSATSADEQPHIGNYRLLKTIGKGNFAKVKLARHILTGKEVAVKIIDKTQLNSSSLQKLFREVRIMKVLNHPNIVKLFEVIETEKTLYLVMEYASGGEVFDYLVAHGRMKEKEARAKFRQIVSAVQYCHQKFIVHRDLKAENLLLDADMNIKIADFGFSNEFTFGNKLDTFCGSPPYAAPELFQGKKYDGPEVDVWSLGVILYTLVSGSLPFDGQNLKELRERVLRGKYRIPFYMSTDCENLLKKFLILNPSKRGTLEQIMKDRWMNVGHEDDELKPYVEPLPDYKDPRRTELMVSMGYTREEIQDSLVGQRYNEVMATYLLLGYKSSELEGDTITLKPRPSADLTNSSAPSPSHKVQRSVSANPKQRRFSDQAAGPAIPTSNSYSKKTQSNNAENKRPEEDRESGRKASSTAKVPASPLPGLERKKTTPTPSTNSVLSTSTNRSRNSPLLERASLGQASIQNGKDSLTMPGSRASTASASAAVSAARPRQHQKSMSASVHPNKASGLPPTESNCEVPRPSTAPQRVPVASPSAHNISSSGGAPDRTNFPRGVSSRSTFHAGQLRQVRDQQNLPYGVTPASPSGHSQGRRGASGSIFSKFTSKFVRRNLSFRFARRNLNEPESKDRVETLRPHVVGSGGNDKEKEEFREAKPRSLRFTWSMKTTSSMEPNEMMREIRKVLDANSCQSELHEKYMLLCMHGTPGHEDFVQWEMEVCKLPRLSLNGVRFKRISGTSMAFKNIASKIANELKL

[12] = target: 5'-AMP-activated protein kinase catalytic subunit alpha-1 (Homo sapiens, UniProt Q13131); test: Selectivity interaction (KinomeScan (DiscoverX)) EUB0000092b PRKAA1; details: at 10 µM

SMILES: C=CC(=O)Nc1ccc(C(=O)Nc2[nH]nc3c2CN(C(=O)N[C@H](CN(C)C)c2ccccc2)C3(C)C)cc1
- % of engagement [1]: 11.1%

SMILES: COc1cc(N(C)c2ccnc3ccc(C(F)(F)F)cc23)cc(OC)c1OC
- % binding [2]: 85%

SMILES: CNCCN1CCC(c2cc(CN(C)C(=O)c3cccc(Oc4ccccc4)c3)ccn2)CC1
- % activity [3]: > 90%

SMILES: C=CC(=O)Nc1cc(-n2c(=O)ccc3cnc4ccc(-c5ccc(NS(C)(=O)=O)cc5)cc4c32)ccc1C
- % of control [4]: 57%

SMILES: O=C(NOC[C@H](O)CO)c1ccc(F)c(F)c1Nc1ccc(I)cc1F
- % of control [5]: 87%

SMILES: COc1cc(Nc2nc(C)cc(-c3cnn4nc(OC)ccc34)n2)cc(C(F)(F)F)c1
- % of control [6]: 100%

SMILES: Cc1ccc(-c2ccc3c(ccc4sc5c(c43)NC[C@@H](C)NC5=O)n2)cn1
- % of inhibition [7]: 8%

SMILES: C=CC(=O)Nc1cccc(C(=O)Nc2ccc(Nc3cc(-c4[nH]c(SC)nc4C)ccn3)cc2)c1
- % of control ([8]; at 1 µM): 99%
- % of control ([8]; at 5 µM): 86%

SMILES: CC[C@@H]1[C@H](F)C(=O)N[C@@H]1COc1nccc2cc(C(N)=O)c(OC)cc12 [ZIMLOVISERTIB]
- % of inhibition [9]: -8.9%
- % of inhibition [10]: 18.9%

SMILES: CN(C)CCOc1ccc(-c2nc(-c3ccncc3)c(-c3ccc4c(c3)CC/C4=N\O)[nH]2)cc1
- % of control [11]: 100%

SMILES: CCC(=O)N1CCN(c2ccc(-n3c(=O)ccc4cnc5ccc(-c6cnc7ccccc7c6)cc5c43)cc2C(F)(F)F)CC1
- % of control [12]: 91%
